{
  "source": "patent US20140275156A1",
  "about": "“FLAVONOID COMPOUNDS, AND METHODS OF USE THEREOF” (NEUPROTECT PTY LTD, priority 2011, published 2014)",
  "key": {"H9C2 rat myoblasts": {"tested_on": "H9C2 rat myoblasts", "assay": "Cytoprotection in H9C2 myoblasts", "type": "cell-based", "description": "(§1) Cardiac myocytes were plated on collagen-coated dishes in serum containing media Dulbecco's modified Eagle's medium/Medium 199 (4:1 v/v) containing 10% (v/v) horse serum, 5% (v/v) fetal calf serum, and penicillin/streptomycin (100 units/ml). Murine skeletal myoblast (C2C12) or rat cardiac myoblasts (H9C2) were maintained in DMEM supplemented with 10% (v/v) fetal calf serum and 100 U/ml penicillin-streptomycin. Cells were incubated overnight at 37° C. in a 5% CO2 incubator prior to the experiment. Cells were pre-treated with flavanols for 30 min prior to stress treatments. Following pre-treatment, cells were stimulated by the addition of H2O2 (1 mM), sorbitol (0.5 M) or arsenite (300 μM). DMSO (0.1% v/v) was used as a vehicle control. Following treatment, cells were assessed for viability or protein lysates prepared for immunoblot analysis.\n(§2) To define the protective and kinase modulatory properties of the compounds of the certain embodiments, their effects in greater detail in vitro. The protection of cultured C2C12 murine myoblasts was evaluated against detrimental stress stimuli using an XTT assay of cell viability. In a time-course of oxidative damage, it was observed that 2 h treatment of H2O2 (0.5 or 1.0 mM) reduced myoblast viability to 38.5+2.0% and 31.9+0.8%, respectively, compared with control cells without H2O2 treatment."}, "[1]": {"settings": "in vitro studies (Wang et al., British Journal of Pharmacology (2004) 142, 443-452); cited from earlier work"}, "[2]": {"tested_on": "primary neonatal rat cardiac myocytes", "assay": "Cytoprotection in primary cardiac myocytes", "type": "cell-based", "description": "as §1, §2"}},
  "data": [
    {"smiles": "O=c1c(O)c(-c2ccc(O)c(O)c2)oc2ccccc12", "note": "[DiOHF, 3′,4′-dihydroxy flavonol]", "values": [
      {"measurement": "protection against stress", "setting": "H9C2 rat myoblasts", "result": "similarly protective"},
      {"measurement": "infarct and injury associated with myocardial ischaemia and reperfusion", "setting": "[1]", "result": "reduce infarct and injury"},
      {"measurement": "protection against stress", "setting": "[2]", "result": "similarly protective"}
    ]}
  ]
}
